The values that follow come from patent US7745450B2, “Pyrazolo[4,3-d]pyrimidines, processes for their preparation and methods for therapy” (Institute of Experimental Botany, priority 2002, dated 2010).

The target in one experiment is cdk1/cyclin B (CDC2) (Homo sapiens, UniProt P06493). In words: CDK inhibition assay, cdk1/cyclin B (CDC2) kinase, histone phosphorylation. The format is biochemical. The protocol:
Selected compounds were tested for cdk1/cyclin B and cdk2/cyclin E inhibitory activity to determine the basic relationships between their interaction energy of docked complex and the inhibitory activity. Cdk2/cyclin E complex was produced in SIP insect cells co-infected with appropriate baculoviral construct. The cells were harvested 70 hours post infection in lysis buffer (50 mM Tris 7.4 pH, 150 mM NaCl, 5 mM EDTA, 20 mM NaF, 1% Tween 20, protease inhibitors) for 30 min on ice and the soluble fraction was recovered by centrifugation at 14.000 g for 10 min. The protein extract was stored at −80° C. until use. The final point test system for kinase activity measurement was used to carry out experiments on the kinetics under linear conditions. The assay mixture contained 1 mg/ml histone (Sigma Type III-S), 15 μM ATP, 0.2 μCi [γ-^32P] ATP and tested compound in a final volume of 20 μl, all in reaction buffer: 50 mM Hepes 7.4 pH, 10 mM MgCl2, 5 mM EGTA, 10 mM 2-glycerolphosphate, 1 mM NaF, 1 mM DTT and protease inhibitors. […] The measurement of kinase inhibition employed the digital imaging analyzer BAS 1800. The kinase activity was expressed as a percentage of maximum activity and the IC50 value was determined by graphic analysis. The kinase activity is expressed as a percentage of maximum activity, the apparent inhibition constants are determined by graphic analysis from dose-response curves presented on FIG. 1.

A further experiment concerns the target IκB-α kinase. In words: IκB-α kinase inhibition, in vitro kinase assay. In kind it is biochemical.

By IC50 is commonly meant the point on the concentration scale where inhibition reaches its midpoint. A low value points to greater potency in that assay.

Sequence of cdk1/cyclin B (CDC2) (P06493 whole entry, species assumed): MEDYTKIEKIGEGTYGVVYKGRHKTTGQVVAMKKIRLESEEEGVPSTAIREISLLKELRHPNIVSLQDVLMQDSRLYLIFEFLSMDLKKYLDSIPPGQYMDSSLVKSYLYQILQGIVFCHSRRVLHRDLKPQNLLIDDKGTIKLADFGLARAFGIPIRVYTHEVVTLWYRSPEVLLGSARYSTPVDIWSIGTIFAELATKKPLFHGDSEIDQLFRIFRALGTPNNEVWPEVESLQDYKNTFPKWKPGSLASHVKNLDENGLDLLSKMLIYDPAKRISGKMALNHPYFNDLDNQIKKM
Sequence of cdk1/cyclin B (CDC2) (P14635 whole entry partner, species assumed): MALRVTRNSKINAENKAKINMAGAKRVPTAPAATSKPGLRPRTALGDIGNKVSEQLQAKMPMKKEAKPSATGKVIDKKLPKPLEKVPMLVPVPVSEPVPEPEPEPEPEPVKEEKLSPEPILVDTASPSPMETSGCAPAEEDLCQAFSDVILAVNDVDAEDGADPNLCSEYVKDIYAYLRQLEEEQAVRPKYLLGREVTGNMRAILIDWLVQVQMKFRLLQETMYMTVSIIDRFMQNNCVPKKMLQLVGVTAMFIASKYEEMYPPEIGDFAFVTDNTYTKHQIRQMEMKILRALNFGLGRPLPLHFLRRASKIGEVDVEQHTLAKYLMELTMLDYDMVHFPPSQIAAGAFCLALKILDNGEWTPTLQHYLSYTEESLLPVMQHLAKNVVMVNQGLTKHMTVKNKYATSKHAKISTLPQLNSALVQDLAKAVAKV

With `Cc1n[nH]c2c(Nc3ccccc3)nc(NCCO)nc12` [2-hydroxyethylamino; anilino; methyl], the IC50 against cdk1/cyclin B (CDC2) came to 90 nM; against IκB-α kinase, 210 nM.
On the same counts, the results for `CC(C)c1n[nH]c2c(NCc3cccc(O)c3)nc(N[C@@H](CO)C(C)C)nc12` are 2 nM and 4 nM.
In the case of `CC[C@H](CO)Nc1nc(N(C)CCc2ccc(O)c(O)c2)c2[nH]nc(C(C)C)c2n1`, the IC50 against cdk1/cyclin B (CDC2) was determined as 720 nM; at IκB-α kinase it was 1500 nM.
On the same counts, the results for `Cc1n[nH]c2c(Nc3cccc(Cl)c3)nc(NCCO)nc12` are 40 nM and 90 nM.
With `Cc1n[nH]c2c(NCc3ccc(Cl)c(N)c3)nc(NCCO)nc12`, the IC50 was 200 nM on cdk1/cyclin B (CDC2) and 800 nM against IκB-α kinase.
In the same order, the values of `CC[C@H](CO)Nc1nc(NCc2ccc(Cl)c(O)c2O)c2[nH]nc(C(C)C)c2n1` are 3 nM and 11 nM.
On the same counts, the results for `COc1cccc(CNc2nc(NCCO)nc3c(C)n[nH]c23)c1O` are 10 nM and 40 nM.
Regarding `CC[C@H](CO)Nc1nc(NC(CO)c2ccccc2)c2[nH]nc(C(C)C)c2n1` (mixture of isomers), the IC50 against cdk1/cyclin B (CDC2) was determined as 90 nM; against IκB-α kinase it was 210 nM.
On the same counts, the results for `CC(=O)c1cccc(CNc2nc(NCCO)nc3c(C)n[nH]c23)c1` are 40 nM and 90 nM.
Consider `COc1cc(O)c(CNc2nc(NCCO)nc3c(C)n[nH]c23)c(O)c1`, for which the half-maximal inhibitory concentration (IC50) on cdk1/cyclin B (CDC2) worked out at 4 nM; on IκB-α kinase it was 9 nM.
For the molecule `CC(C)c1n[nH]c2c(NC(CO)c3ccccc3)nc(N[C@@H](CO)C(C)C)nc12` (mixture of isomers), the IC50 came to 60 nM against cdk1/cyclin B (CDC2) and 150 nM against IκB-α kinase.
On the same counts, the results for `Cc1n[nH]c2c(Nc3ccc(Cl)c(N)c3)nc(NCCO)nc12` are 9 nM and 23 nM.
In the same order, the values of `CC(C)c1n[nH]c2c(NCc3cc(O)c(Cl)cc3O)nc(N[C@@H](CO)C(C)C)nc12` are 0.8 nM and 1 nM.
Consider `Cc1n[nH]c2c(N(C)Cc3ccc(O)c(O)c3)nc(NCCO)nc12`, for which the IC50 was 700 nM against cdk1/cyclin B (CDC2) and 900 nM against IκB-α kinase.
On the same counts, the results for `CC[C@H](CO)Nc1nc(NCc2c(O)cc(OC)cc2O)c2[nH]nc(C(C)C)c2n1` are 0.8 nM and 3 nM.
In the same order, the values of `COc1ccc(CNc2nc(NCCO)nc3c(C)n[nH]c23)c(O)c1O` are 8 nM and 28 nM.
On the same counts, the results for `COc1cc(O)c(CNc2nc(N[C@@H](CO)C(C)C)nc3c(C(C)C)n[nH]c23)c(O)c1` are 0.7 nM and 1.6 nM.
For `CC(C)c1n[nH]c2c(Nc3cccc(Cl)c3)nc(NCCO)nc12`, the IC50 on cdk1/cyclin B (CDC2) was found to be 110 nM; against IκB-α kinase, 280 nM.
On the same counts, the results for `Cc1n[nH]c2c(NCc3c(N)cccc3Cl)nc(NCCO)nc12` are 40 nM and 80 nM.
In the same order, the values of `Cc1cccc(CNc2nc(NCCO)nc3c(C)n[nH]c23)c1O` are 10 nM and 30 nM.
With `CC(C)c1n[nH]c2c(NCc3ccc(Cl)c(O)c3O)nc(N[C@@H](CO)C(C)C)nc12`, the IC50 against cdk1/cyclin B (CDC2) amounted to 0.2 nM; at IκB-α kinase, 1 nM.
On the same counts, the results for `Cc1n[nH]c2c(Nc3ccc(O)c(C(=O)O)c3)nc(NCCO)nc12` are 20 nM and 50 nM.
With `CC[C@H](CO)Nc1nc(NCc2ccc(O)c(O)c2)c2[nH]nc(C(C)C)c2n1`, the half-inhibitory concentration (IC50) on cdk1/cyclin B (CDC2) stood at 500 nM; against IκB-α kinase, 1100 nM.
On the same counts, the results for `Cc1n[nH]c2c(NCc3ccccc3)nc(NCCCO)nc12` are 700 nM and 1800 nM.
In the same order, the values of `CC(C)c1n[nH]c2c(N(C)CCc3ccc(O)c(O)c3)nc(N[C@@H](CO)C(C)C)nc12` are 90 nM and 150 nM.
With `Cc1n[nH]c2c(NCc3ccccc3)nc(N(CCO)CCO)nc12`, the values for the IC50 against cdk1/cyclin B (CDC2) and against IκB-α kinase were 900 nM and 2100 nM, respectively.
On the same counts, the results for `CC(C)c1n[nH]c2c(NCc3c(O)cc(Cl)cc3O)nc(N[C@@H](CO)C(C)C)nc12` are 1 nM and 2 nM.
